Measurements published in PubChem BioAssay AID1259407 (Chemical Carcinogenesis Research Information System (CCRIS), 2018).
The source made the active and inactive calls. No rule for the calls is given here.

Test system: CCRIS mutagenicity, Ames/micronucleus/aberration tests
Experiment: CCRIS mutagenicity studies
[1] = Test System: AMES SALMONELLA TYPHIMURIUM, Strain/Indicator: TA98, Metabolic Activation: NONE, Method: PREINCUBATION
[2] = Test System: AMES SALMONELLA TYPHIMURIUM, Strain/Indicator: TA100, Metabolic Activation: NONE, Method: PREINCUBATION
[3] = Test System: AMES SALMONELLA TYPHIMURIUM, Strain/Indicator: TA1535, Metabolic Activation: NONE, Method: PREINCUBATION

Measured: mutagenic call

NC(=O)N/N=C/C(=O)O
inactive: Test System: AMES SALMONELLA TYPHIMURIUM, Strain/Indicator: TA98, Metabolic Activation: NONE, Method: STANDARD PLATE inactive; negative | Test System: AMES SALMONELLA TYPHIMURIUM, Strain/Indicator: TA98, Metabolic Activation: RAT, LIVER, S-9, AROCLOR 1254, Method: STANDARD PLATE inactive; negative | Test System: AMES SALMONELLA TYPHIMURIUM, Strain/Indicator: TA100, Metabolic Activation: NONE, Method: STANDARD PLATE inactive; negative | Test System: AMES SALMONELLA TYPHIMURIUM, Strain/Indicator: TA100, Metabolic Activation: RAT, LIVER, S-9, AROCLOR 1254, Method: STANDARD PLATE inactive; negative | Test System: AMES SALMONELLA TYPHIMURIUM, Strain/Indicator: TA1535, Metabolic Activation: NONE, Method: STANDARD PLATE inactive; negative | Test System: AMES SALMONELLA TYPHIMURIUM, Strain/Indicator: TA1535, Metabolic Activation: RAT, LIVER, S-9, AROCLOR 1254, Method: STANDARD PLATE inactive; negative | Test System: AMES SALMONELLA TYPHIMURIUM, Strain/Indicator: TA1537, Metabolic Activation: NONE, Method: STANDARD PLATE inactive; negative | Test System: AMES SALMONELLA TYPHIMURIUM, Strain/Indicator: TA1537, Metabolic Activation: RAT, LIVER, S-9, AROCLOR 1254, Method: STANDARD PLATE inactive; negative | Test System: AMES SALMONELLA TYPHIMURIUM, Strain/Indicator: TA1538, Metabolic Activation: NONE, Method: STANDARD PLATE inactive; negative | Test System: AMES SALMONELLA TYPHIMURIUM, Strain/Indicator: TA1538, Metabolic Activation: RAT, LIVER, S-9, AROCLOR 1254, Method: STANDARD PLATE inactive; negative

CCCCCN(CCCOC)C(=O)C(CCC(=O)O)NC(=O)c1ccc(Cl)c(Cl)c1 (configuration not stated)
inactive: [1] inactive; negative | Test System: AMES SALMONELLA TYPHIMURIUM, Strain/Indicator: TA98, Metabolic Activation: RAT LIVER S-9, PHENOBARBITAL AND 5,6-BENZOFLAVONE, Method: PREINCUBATION inactive; negative | [2] inactive; negative | Test System: AMES SALMONELLA TYPHIMURIUM, Strain/Indicator: TA100, Metabolic Activation: RAT LIVER S-9, PHENOBARBITAL AND 5,6-BENZOFLAVONE, Method: PREINCUBATION inactive; negative | [3] inactive; negative | Test System: AMES SALMONELLA TYPHIMURIUM, Strain/Indicator: TA1535, Metabolic Activation: RAT LIVER S-9, PHENOBARBITAL AND 5,6-BENZOFLAVONE, Method: PREINCUBATION inactive; negative | Test System: AMES SALMONELLA TYPHIMURIUM, Strain/Indicator: TA1537, Metabolic Activation: NONE, Method: PREINCUBATION inactive; negative | Test System: AMES SALMONELLA TYPHIMURIUM, Strain/Indicator: TA1537, Metabolic Activation: RAT LIVER S-9, PHENOBARBITAL AND 5,6-BENZOFLAVONE, Method: PREINCUBATION inactive; negative | Test System: E.COLI, Strain/Indicator: WP2 UVRA, Metabolic Activation: NONE, Method: PREINCUBATION inactive; negative | Test System: E.COLI, Strain/Indicator: WP2 UVRA, Metabolic Activation: RAT LIVER S-9, PHENOBARBITAL AND 5,6-BENZOFLAVONE, Method: PREINCUBATION inactive; negative

CCCCOCCCC
inactive: Test System: AMES SALMONELLA TYPHIMURIUM, Strain/Indicator: TA97, Metabolic Activation: HAMSTER, LIVER, S-9, AROCLOR 1254 (10%), Method: PREINCUBATION inactive; negative | Test System: AMES SALMONELLA TYPHIMURIUM, Strain/Indicator: TA97, Metabolic Activation: HAMSTER, LIVER, S-9, AROCLOR 1254 (30%), Method: PREINCUBATION inactive; negative | Test System: AMES SALMONELLA TYPHIMURIUM, Strain/Indicator: TA97, Metabolic Activation: NONE, Method: PREINCUBATION inactive; negative | Test System: AMES SALMONELLA TYPHIMURIUM, Strain/Indicator: TA97, Metabolic Activation: RAT, LIVER, S-9, AROCLOR 1254 (10%), Method: PREINCUBATION inactive; negative | Test System: AMES SALMONELLA TYPHIMURIUM, Strain/Indicator: TA97, Metabolic Activation: RAT, LIVER, S-9, AROCLOR 1254 (30%), Method: PREINCUBATION inactive; negative | Test System: AMES SALMONELLA TYPHIMURIUM, Strain/Indicator: TA98, Metabolic Activation: HAMSTER, LIVER, S-9, AROCLOR 1254 (10%), Method: PREINCUBATION inactive; negative | Test System: AMES SALMONELLA TYPHIMURIUM, Strain/Indicator: TA98, Metabolic Activation: HAMSTER, LIVER, S-9, AROCLOR 1254 (30%), Method: PREINCUBATION inactive; negative | [1] inactive; negative | Test System: AMES SALMONELLA TYPHIMURIUM, Strain/Indicator: TA98, Metabolic Activation: RAT, LIVER, S-9, AROCLOR 1254 (10%), Method: PREINCUBATION inactive; negative | Test System: AMES SALMONELLA TYPHIMURIUM, Strain/Indicator: TA98, Metabolic Activation: RAT, LIVER, S-9, AROCLOR 1254 (30%), Method: PREINCUBATION inactive; negative | Test System: AMES SALMONELLA TYPHIMURIUM, Strain/Indicator: TA100, Metabolic Activation: HAMSTER, LIVER, S-9, AROCLOR 1254 (10%), Method: PREINCUBATION inactive; negative | Test System: AMES SALMONELLA TYPHIMURIUM, Strain/Indicator: TA100, Metabolic Activation: HAMSTER, LIVER, S-9, AROCLOR 1254 (30%), Method: PREINCUBATION inactive; negative | [2] inactive; negative | Test System: AMES SALMONELLA TYPHIMURIUM, Strain/Indicator: TA100, Metabolic Activation: RAT, LIVER, S-9, AROCLOR 1254 (10%), Method: PREINCUBATION inactive; negative | Test System: AMES SALMONELLA TYPHIMURIUM, Strain/Indicator: TA100, Metabolic Activation: RAT, LIVER, S-9, AROCLOR 1254 (30%), Method: PREINCUBATION inactive; negative | Test System: AMES SALMONELLA TYPHIMURIUM, Strain/Indicator: TA1535, Metabolic Activation: HAMSTER, LIVER, S-9, AROCLOR 1254 (10%), Method: PREINCUBATION inactive; negative | Test System: AMES SALMONELLA TYPHIMURIUM, Strain/Indicator: TA1535, Metabolic Activation: HAMSTER, LIVER, S-9, AROCLOR 1254 (30%), Method: PREINCUBATION inactive; negative | [3] inactive; negative | Test System: AMES SALMONELLA TYPHIMURIUM, Strain/Indicator: TA1535, Metabolic Activation: RAT, LIVER, S-9, AROCLOR 1254 (10%), Method: PREINCUBATION inactive; negative | Test System: AMES SALMONELLA TYPHIMURIUM, Strain/Indicator: TA1535, Metabolic Activation: RAT, LIVER, S-9, AROCLOR 1254 (30%), Method: PREINCUBATION inactive; negative

Oc1cc(O)c2c(c1)O[C@H](c1ccc(O)c(O)c1)[C@H](O)C2
inactive: Test System: Ames Salmonella typhimurium, Strain/Indicator: TA102, Metabolic Activation: None, Method: Preincubation inactive; negative | Test System: Ames Salmonella typhimurium, Strain/Indicator: TA102, Metabolic Activation: Rat, Liver, S-9, Aroclor 1254 in 0.154 M KCl, Method: Preincubation inactive; negative
